Assay results: the NIST ThermoML archive (doi:10.1007/s10765-016-2104-7)
± gives the expanded uncertainty stated by the source.

Settings: Liquid, Vibrating wire viscometry

viscosity (1373 K) [mPa·s]	viscosity (1423 K) [mPa·s]	viscosity (1473 K) [mPa·s]	viscosity (1523 K) [mPa·s]	viscosity (1573 K) [mPa·s]	viscosity (1623 K) [mPa·s]	viscosity (1673 K) [mPa·s]	viscosity (1273 K) [mPa·s]	viscosity (1323 K) [mPa·s]	SMILES	viscosity (873 K) [mPa·s]	viscosity (973 K) [mPa·s]	viscosity (1073 K) [mPa·s]
5.625 ± 0.65	5.47 ± 0.16	4.963 ± 0.36	4.764 ± 0.25	4.495 ± 0.32	4.276 ± 0.51	3.981 ± 0.57			[Au] [gold]			
2.812 ± 0.65	2.649 ± 0.33	2.54 ± 0.22	2.498 ± 0.46	2.399 ± 0.35	2.332 ± 0.39	2.214	3.52 ± 0.74	2.904 ± 0.45	[Ag] [silver]			
									[Sn] [tin]	1.253 ± 0.2	1.142 ± 0.3	1.087 ± 0.047
